In patent publication US20080032978A1, “SOLUBLE EPOXIDE HYDROLASE INHIBITORS” (Arete Therapeutics, Inc., priority 2006, published 2008):

What was measured:
[1] = system: soluble epoxide hydrolase (sEH); experiment: Fluorescent assay for mouse and human soluble epoxide hydrolase (CMNPC substrate); format: biochemical
Text: Fluorescent Assay for Mouse and Human Soluble Epoxide Hydrolase Recombinant mouse sEH (MsEH) and human sEH (HsEH) were produced in a baculovirus expression system as previously reported. Grant et al., J. Biol. Chem., 268:17628-17633 (1993); Beetham et al., Arch. Biochem. Biophys., 305:197-201 (1993). The expressed proteins were purified from cell lysate by affinity chromatography. Wixtrom et al., Anal. […] Protein concentration was quantified using the Pierce BCA assay using bovine serum albumin as the calibrating standard. […] Solutions: Bis/Tris HCl 25 mM 7.0 containing 0.1 mg/mL of BSA (buffer […] at 0.25 mM in DMSO. Mother solution of enzyme in buffer A (Mouse sEH at 6 μg/mL and Human sEH at 5 μg/mL). Inhibitor dissolved in DMSO at the appropriate concentration. Protocol: In a black 96 well plate, fill all the wells with 150 μL of buffer A. Add 2 μL of DMSO in well A2 and A3, and then add 2 μL of inhibitor solution in A1 and A4 through A12. Add 150 μL of buffer A in a row A, then mix several time and transfer 150 μL to row B. Repeat this operation up to row H. The 150 μL removed from row H go to the trash. Add 20 μL of buffer A in column 1 and 2, then add 20 μL of enzyme solution to column 3 to 12. Incubate the plate for 5 minutes in the plate reader at 30° C. During incubation prepare the working solution of substrate by mixing 3.68 mL of buffer A (4×0.920 mL) with 266 μL (2×133 μL) of substrate solution). At t=0, add 30 μL of working substrate solution with multi-channel pipette labeled “Briggs 303” and start the reading ([S]final: 5 μM). Read with ex: 330 nm (20 nm) and em: 465 nm (20 nm) every 30 second for 10 minutes. The velocities are used to analyze and calculate the IC50s.

SMILES | melting point [°C] | % I ([1]; Conc of I 500 nM) [%] | % I ([1]; Conc of I 5000 nM) [%] | % I ([1]; Conc of I 50 nM) [%]
O=C(Nc1ccc(C(=O)N2CCC(C(=O)O)CC2)cc1)NC12CC3CC(CC(C3)C1)C2 [Compound 12, 1-[4-(3-Adamantan-1-yl-ureido)-benzoyl]-piperidine-4-carboxylic acid] | 272 to 275 |  | 99 | 
CN1CCN(C(=O)c2ccc(NC(=O)NC34CC5CC(CC(C5)C3)C4)cc2)CC1 [Compound 5, 1-Adamantan-1-yl-3-[4-(4-methyl-piperazine-1-carbonyl)-phenyl]-urea] | 190 to 196 | 96 |  | 
O=C(NC1CCC(C(=O)N2CCOCC2)CC1)NC12CC3CC(CC(C3)C1)C2 (centres unmarked) [Compound 11, 1-Adamantan-1-yl-3-[4-(morpholine-4-carbonyl)-cyclohexyl]-urea] | 128 to 131 | 96 |  | 
COCCN1CCN(C(=O)c2ccc(NC(=O)NC34CC5CC(CC(C5)C3)C4)cc2)CC1 [Compound 4, 1-Adamantan-1-yl-3-{4-[4-(2-methoxy-ethyl)-piperazine-1-carbonyl]-phenyl}-urea] | 191 to 194 | 96 |  | 
CN(C)CCN(C)C(=O)c1ccc(NC(=O)NC23CC4CC(CC(C4)C2)C3)cc1 [Compound 37, 4-(3-Adamantan-1-yl-ureido)-N-(2-dimethylamino-ethyl)-N-methyl-benzamide] | 150 to 156 | 88 |  | 
CN1CCN(C(=O)c2ccc(NC(=O)Nc3ccc(C(F)(F)F)cc3)cc2F)CC1 [Compound 30, 1-[3-Fluoro-4-(4-methyl-piperazine-1-carbonyl)-phenyl]-3-(4-trifluoromethyl-phenyl)-urea] |  |  |  | 88
CN(CC(=O)N1CCOCC1)C(=O)c1ccc(NC(=O)Nc2ccc(C(F)(F)F)cc2)cc1 [Compound 39, N-Methyl-N-(2-morpholin-4-yl-2-oxo-ethyl)-4-[3-(4-trifluoromethyl-phenyl)-ureido]-benzamide] | 226 to 233 | 86 |  | 
CN1CCN(C(=O)c2cc(NC(=O)Nc3ccc(C(F)(F)F)cc3)ccc2F)CC1 [Compound 33, 1-[4-Fluoro-3-(4-methyl-piperazine-1-carbonyl)-phenyl]-3-(4-trifluoromethyl-phenyl)-urea] |  | 95 |  | 
O=C(Nc1ccc(Cl)cc1)Nc1cccc(C(=O)N2CCC(N3CCOCC3)CC2)c1 [Compound 10, 1-(4-Chloro-phenyl)-3-[3-(4-morpholin-4-yl-piperidine-1-carbonyl)-phenyl]-urea] |  | 87 |  | 
O=C(NC1CCC(C(=O)N2CCC(C(=O)O)CC2)CC1)NC12CC3CC(CC(C3)C1)C2 (centres unmarked) [Compound 21, 1-[4-(3-Adamantan-1-yl-ureido)-cyclohexanecarbonyl]-piperidine-4-carboxylic acid] |  | 76 |  | 

The remaining lines, values ahead:

melting point [°C] | % I ([1]; Conc of I 500 nM) [%] | % I ([1]; Conc of I 5000 nM) [%] | % I ([1]; Conc of I 50 nM) [%] | SMILES
89 to 94 | 81 |  |  | CN(C)CCN(C)C(=O)c1cccc(NC(=O)NC23CC4CC(CC(C4)C2)C3)c1 [Compound 38, 3-(3-Adamantan-1-yl-ureido)-N-(2-dimethylamino-ethyl)-N-methyl-benzamide]
238 to 241 | 64 |  |  | O=C(Nc1ccc(Cl)cc1)Nc1ccc(C(=O)N2CCC(C(=O)O)CC2)cc1 [Compound 9, 1-{4-[3-(4-Chloro-phenyl)-ureido]-benzoyl}-piperidine-4-carboxylic acid]
248 to 250 | 77 |  |  | COCCN1CCN(C(=O)c2ccc(NC(=O)Nc3ccc(F)cc3)cc2)CC1 [Compound 25, 1-(4-Fluoro-phenyl)-3-{4-[4-(2-methoxy-ethyl)-piperazine-1-carbonyl]-phenyl}-urea]
159 to 163 | 92 |  |  | O=C(NC1CCCCC1)NC1CCC(C(=O)N2CCOCC2)CC1 (centres unmarked) [Compound 40, 1-Cyclohexyl-3-[4-(morpholine-4-carbonyl)-cyclohexyl]-urea]
 |  |  | 89 | O=C(Nc1ccc(C(=O)N2CCOCC2)cc1)Nc1ccc(C(F)(F)F)cc1 [Compound 17, 1-[4-(Morpholine-4-carbonyl)-phenyl]-3-(4-trifluoromethyl-phenyl)-urea]
236 to 240 | 95 |  |  | CN(CC(=O)O)C(=O)C1CCC(NC(=O)NC23CC4CC(CC(C4)C2)C3)CC1 (centres unmarked) [Compound 36, {[4-(3-Adamantan-1-yl-ureido)-cyclohexanecarbonyl]-methyl-amino}-acetic acid]
 |  |  | 75 | CN1CCN(C(=O)c2ccc(NC(=O)Nc3ccc(C(F)(F)F)cc3)cc2)CC1 [Compound 18, 1-[4-(4-Methyl-piperazine-1-carbonyl)-phenyl]-3-(4-trifluoromethyl-phenyl)-urea]
193 to 197 | 94 |  |  | O=C(Nc1ccc(C(F)(F)F)cc1)Nc1cccc(C(=O)N2CCC(C(=O)O)CC2)c1 [Compound 29, 1-{3-[3-(4-Trifluoromethyl-phenyl)-ureido]-benzoyl}-piperidine-4-carboxylic acid]
235 to 240 |  |  | 91 | COCCN1CCN(C(=O)c2ccc(NC(=O)Nc3ccc(OC(F)(F)F)cc3)cc2)CC1 [Compound 28, 1-{4-[4-(2-Methoxy-ethyl)-piperazine-1-carbonyl]-phenyl}-3-(4-trifluoromethoxy-phenyl)-urea]
 | 88 |  |  | O=C(Nc1ccc(Cl)cc1)Nc1cccc(C(=O)N2CCOCC2)c1 [Compound 3, 1-(4-Chloro-phenyl)-3-[3-(morpholine-4-carbonyl)-phenyl]-urea]
 |  |  | 93 | CC(C)N1CCN(C(=O)c2ccc(NC(=O)Nc3ccc(C(F)(F)F)cc3)cc2)CC1 [Compound 34, 1-[4-(4-Isopropyl-piperazine-1-carbonyl)-phenyl]-3-(4-trifluoromethyl-phenyl)-urea]
 | 94 |  |  | O=C(Nc1ccc(Cl)cc1)Nc1ccc(C(=O)N2CCOCC2)cc1 [Compound 2, 1-(4-Chloro-phenyl)-3-[4-(morpholine-4-carbonyl)-phenyl]-urea]
